Test results published in US5679671A, “Amino acid derivative” (Eisai Co., Ltd., priority 1993, dated 1997).

What was measured:
[1] = biological target: T1, ACE (Rattus norvegicus, UniProt P47820); experiment: ACE inhibition activity (Experiment F-1); type: biochemical; settings: rat lung membrane fraction, pH 8.3
T1 construct: membrane fraction prepared from rat lung; from tissue; host or cells: rat lung, membrane fraction (method of Wu-Wong et al.)
T1 sequence (P47820 36-1313): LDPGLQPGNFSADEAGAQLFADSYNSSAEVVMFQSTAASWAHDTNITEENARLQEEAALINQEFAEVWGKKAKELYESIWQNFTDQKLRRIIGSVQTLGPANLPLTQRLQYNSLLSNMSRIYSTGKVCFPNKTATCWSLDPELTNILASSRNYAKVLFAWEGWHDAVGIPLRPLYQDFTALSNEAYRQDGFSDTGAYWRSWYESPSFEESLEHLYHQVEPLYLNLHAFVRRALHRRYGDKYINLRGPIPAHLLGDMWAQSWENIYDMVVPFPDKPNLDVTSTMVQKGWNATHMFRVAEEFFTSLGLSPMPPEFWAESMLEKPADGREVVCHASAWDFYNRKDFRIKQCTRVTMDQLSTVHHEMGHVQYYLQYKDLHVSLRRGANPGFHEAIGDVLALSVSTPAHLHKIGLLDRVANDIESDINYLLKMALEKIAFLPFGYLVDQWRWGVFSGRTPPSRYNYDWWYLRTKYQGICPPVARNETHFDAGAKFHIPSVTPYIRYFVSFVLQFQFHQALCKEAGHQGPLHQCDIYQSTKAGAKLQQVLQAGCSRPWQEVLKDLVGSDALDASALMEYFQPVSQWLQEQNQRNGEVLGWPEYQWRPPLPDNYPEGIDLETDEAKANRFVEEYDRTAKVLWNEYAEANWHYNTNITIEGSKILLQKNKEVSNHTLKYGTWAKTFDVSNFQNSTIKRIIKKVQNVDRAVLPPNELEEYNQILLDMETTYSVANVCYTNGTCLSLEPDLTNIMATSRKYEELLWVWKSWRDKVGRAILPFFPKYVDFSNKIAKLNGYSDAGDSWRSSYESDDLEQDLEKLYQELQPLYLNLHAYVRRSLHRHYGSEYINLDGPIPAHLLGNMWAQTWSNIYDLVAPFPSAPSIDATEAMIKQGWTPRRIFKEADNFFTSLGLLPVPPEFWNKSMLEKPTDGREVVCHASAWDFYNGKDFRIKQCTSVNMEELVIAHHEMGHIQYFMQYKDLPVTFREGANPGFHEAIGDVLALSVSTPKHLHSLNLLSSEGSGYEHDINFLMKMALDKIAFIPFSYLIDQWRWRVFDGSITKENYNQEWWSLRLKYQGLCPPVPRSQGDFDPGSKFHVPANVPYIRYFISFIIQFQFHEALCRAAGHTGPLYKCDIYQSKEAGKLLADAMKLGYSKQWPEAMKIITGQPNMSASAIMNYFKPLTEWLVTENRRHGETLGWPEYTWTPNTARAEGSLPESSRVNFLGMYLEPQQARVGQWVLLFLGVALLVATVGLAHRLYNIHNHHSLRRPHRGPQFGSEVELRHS
Protocol: As a source of the enzyme ACE, a membrane fraction prepared from rat lung in accordance with the method of Wu-Wong et al. (Characterization of Endthelin Converting Enzyme in Rat Lung., Jinshyum R. Wu-Wong, Gerald P. Budzik, Edward M, Devine and Terry J. Opgenorth, Biochem. Biophys. Res. Commun., 1990, 171, 1291-1296.) was used. The ACE activity was determined with the use of a modification (modified to a borate buffer pH 8.3) of the method of Cushman and Cheung (Spectrophotometric Assay and Properties of the Angiotensin-Converting Enzyme of Rabbit Lung., Cushman D. W. and Cheung H. S., 1971, 20, 1637-1648.). Now the procedure will be briefly described.
In the presence of ACE, the hippurate liberated from hippuryl-histidyl-leucine (Hippuryl-His-Leu (Peptide Institute Inc., Japan)) was extracted with ethyl acetate and then the absorbance was measured at a wavelength of 228 nm.
(§1) With respect to the NEP inhibition activity and the ACE inhibition activity, the inhibitor was added to the assay systems of both enzyme activities as described above in such a manner as to give the final concentrations of 1, 3, 10, 30, 100, 300 and 1000 inhibition curves were prepared, and then the concentration at which 50% inhibition was achieved was taken as IC50.

[2] = test system: ANP-treated SHR; experiment: Diuretic effect on ANP-treated SHR, i.v. (Experiment C-4); type: in vivo, Spontaneously hypertensive male rats
Protocol: 50 ng/kg/min of rat Atrial natriuretic peptide (r-ANP) was intravenously injected into Spontaneously hypertensive male rats (aged 14 to 16 weeks). When the hematogenic dynamics and the blood r-ANP level became stable 1 hour after the injection, the diuretic effect of each test compound was examined. The diuretic effect was determined by intravenously injecting the test compound and measuring an increase (% rate of change) in urinary accumulation within 20 minutes. As a comparative compound, [4S-[4α,7α(R*),12bβ]]-7-[(1-oxo-2(S)-thio-3-phenylpropyl)amino[-1,2,3,4,6,7,8,12b-octahydro-6-oxopyrido[2,1-a][2]benzazepine-4-carboxylic acid was used.

[3] = biological target: T1, ACE; experiment: ACE inhibition activity using rat lung (Experiment A-2); type: biochemical; settings: rat lung membrane fraction, borate buffer pH 8.3
Protocol: The ACE inhibition activity was determined by using a membrane fraction prepared from rat lung in accordance with the method of Wu-Wong et al. (Characterization of Endthelin Converting Enzyme in Rat Lung., Junshyum R. Wu-Wong, Gerald, P. Budzik, Edward M. Devine and Terry J. Opgenorth, Biochem. Biophys. Res. Commun., 1990, 171, 1291-1296.).
The ACE activity was determined with the use of a modification (modified to a borate buffer, pH 8.3) of the method of Cushman and Cheung (Spectrophotometric Assay and Properties of the Angiotensin-Converting Enzyme of Rabbit Lung., Cushman, D. W. and Cheung H. S., 1971, 20, 1637-1648.).
In the presence of ACE, the hippurate liberated from hippuryl-histidyl-leucine (Hippuryl-His-Leu (PeptideInstitute Inc., Japan)) was extracted with ethyl acetate and then the absorbance was measured at a wavelength of 228 nm.
as §1, with “to” for “to the NEP inhibition activity and”, “experimental system” for “assay systems of both enzyme activities”, “1000 nM, an” for “1000”, “curve was” for “curves were”

Structure (SMILES)	IC50 [1] [µM]	IC50 [3] [µM]	increase (% rate of change) in urinary accumulation within 20 minutes ([2]; 0.01 mg/kg i.v.) [%]	increase (% rate of change) in urinary accumulation within 20 minutes ([2]; 0.03 mg/kg i.v.) [%]	increase (% rate of change) in urinary accumulation within 20 minutes ([2]; 0.1 mg/kg i.v.) [%]	increase (% rate of change) in urinary accumulation within 20 minutes ([2]; 0.3 mg/kg i.v.) [%]
CC[C@H](C)[C@H](S)C(=O)N[C@H]1CCC[C@H]2SC[C@@H](C(=O)O)N2C1=O [Example C-8, [3R-[3α,6α,(S*),9aβ]]-6-[[(2S,3S)-3-methyl-1-oxo-2-thiopentyl]amino]-octahydro-5-oxothiazol[3,2-a]-azepine-3-carboxylic acid]	0.0052		200	280	340	
CC[C@H](C)[C@H](S)C(=O)N[C@H]1CCc2ccccc2N(CC(=O)O)C1=O [Example A-11, (S)-3-[(2S,3S)-2-Mercapto-3-methylvarelylamino]-1-carboxymethyl-2,3,4,5-tetrahydro-1H-[1]benzazepin-2-one]		0.011	220	390	460	
CC[C@H](C)[C@H](S)C(=O)N[C@H]1Cc2ccc(-c3ccccc3)cc2[C@H]2CCC[C@@H](C(=O)O)N2C1=O [Example C-14, [4S-[4α,7α(R*),12bβ]]-7-[[(2S,3S)-3-Methyl-1-oxo-2-thiopentyl]amino]-6-oxo-11-phenyl-1,2,3,4,6,7,8,12b-octahydropyrido[2,1-a][2]benzazepine-4-carboxylic acid]				240	420	470
CC[C@H](C)[C@H](S)C(=O)NC1CCc2ccccc2N(CC(=O)O)C1=O (stereo partly drawn) [Example A-9, 1-Carboxymethyl-3-[(2S,3S)-2-mercapto-3-methylvarelylamino]-1H-[1]benzazepin-2-one]		0.013				

Further lines, with some results ahead:

IC50 [1] [µM]	IC50 [3] [µM]	Structure (SMILES)	increase (% rate of change) in urinary accumulation within 20 minutes ([2]; 0.01 mg/kg i.v.) [%]	increase (% rate of change) in urinary accumulation within 20 minutes ([2]; 0.03 mg/kg i.v.) [%]	increase (% rate of change) in urinary accumulation within 20 minutes ([2]; 0.1 mg/kg i.v.) [%]	increase (% rate of change) in urinary accumulation within 20 minutes ([2]; 0.3 mg/kg i.v.) [%]
0.0134		O=C(N[C@H]1CCC[C@H]2SC[C@@H](C(=O)O)N2C1=O)[C@@H](S)Cc1ccccc1 [Example F-17, [3R-[3α,6α(S*),9aβ]]-6-[[(S)-1-Oxo-2-thio-3-phenylpropyl]amino]-octahydro-5-oxothiazol[3,2-a]-azepine-3-carboxylic acid]				
0.0106		O=C(N[C@H]1Cc2ccccc2[C@H]2CCC[C@@H](C(=O)O)N2C1=O)[C@@H](S)Cc1ccccc1 [Comp. cpd. E-1, [4S-[4α,7α(R*),12bβ]]-7-[(1-oxo-2-(S)-thio-3-phenyl-propyl)amino]-1,2,3,4,6,7,8,12b-octahydro-6-oxopyrido-[2,1-a][2]benzazepine-4-carboxylic acid, reference compound]		220	370	360
